Where two headings read alike, the source gives them in different places.
Columns and labels:
WT-PAD4 = WT-PAD4 (Homo sapiens, UniProt Q9UM07); test: MALDI-MS analysis of inhibitor-treated enzyme; type: binding; settings: 1:10 enzyme:inhibitor, 1 h, WT-PAD4 3 μM
PADs 1, 2, 3, and 4 = test: Library screening, inhibition of the PADs described in words; type: biochemical, human; settings: 10 μM, PADs 1–4
PAD2 [1] = biological target: T1, PAD2 (Homo sapiens, UniProt Q9Y2J8); test: Gel-based competitive ABPP with RFA; type: binding; settings: RFA 10 μM, PAD2 2 μM, inhibitor 0–50 μM
T1 sequence (Q9Y2J8 whole entry): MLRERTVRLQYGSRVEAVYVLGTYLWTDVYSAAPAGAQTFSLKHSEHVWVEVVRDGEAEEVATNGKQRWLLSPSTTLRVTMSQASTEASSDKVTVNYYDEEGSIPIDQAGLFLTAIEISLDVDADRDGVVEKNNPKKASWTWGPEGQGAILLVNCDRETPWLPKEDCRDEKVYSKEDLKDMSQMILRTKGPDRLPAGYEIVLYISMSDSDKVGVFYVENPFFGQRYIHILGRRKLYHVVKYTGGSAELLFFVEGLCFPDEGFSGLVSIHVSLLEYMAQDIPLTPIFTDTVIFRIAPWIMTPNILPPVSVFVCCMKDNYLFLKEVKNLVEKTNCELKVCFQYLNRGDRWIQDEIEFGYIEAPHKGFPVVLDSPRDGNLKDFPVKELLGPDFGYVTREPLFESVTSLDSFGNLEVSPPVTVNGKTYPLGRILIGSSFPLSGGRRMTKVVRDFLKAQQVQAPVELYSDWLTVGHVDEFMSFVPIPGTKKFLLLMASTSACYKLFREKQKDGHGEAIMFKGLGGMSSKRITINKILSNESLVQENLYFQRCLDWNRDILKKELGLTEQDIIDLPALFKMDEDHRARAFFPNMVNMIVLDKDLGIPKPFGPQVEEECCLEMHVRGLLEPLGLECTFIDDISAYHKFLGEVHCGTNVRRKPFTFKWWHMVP

PAD4 [2] = biological target: T2, PAD4 (Homo sapiens, UniProt Q9UM07); test: Substrate; type: biochemical; settings: inactivator 0.5 μM; BAEE 2 mM and 10 mM
T2 sequence (Q9UM07 whole entry): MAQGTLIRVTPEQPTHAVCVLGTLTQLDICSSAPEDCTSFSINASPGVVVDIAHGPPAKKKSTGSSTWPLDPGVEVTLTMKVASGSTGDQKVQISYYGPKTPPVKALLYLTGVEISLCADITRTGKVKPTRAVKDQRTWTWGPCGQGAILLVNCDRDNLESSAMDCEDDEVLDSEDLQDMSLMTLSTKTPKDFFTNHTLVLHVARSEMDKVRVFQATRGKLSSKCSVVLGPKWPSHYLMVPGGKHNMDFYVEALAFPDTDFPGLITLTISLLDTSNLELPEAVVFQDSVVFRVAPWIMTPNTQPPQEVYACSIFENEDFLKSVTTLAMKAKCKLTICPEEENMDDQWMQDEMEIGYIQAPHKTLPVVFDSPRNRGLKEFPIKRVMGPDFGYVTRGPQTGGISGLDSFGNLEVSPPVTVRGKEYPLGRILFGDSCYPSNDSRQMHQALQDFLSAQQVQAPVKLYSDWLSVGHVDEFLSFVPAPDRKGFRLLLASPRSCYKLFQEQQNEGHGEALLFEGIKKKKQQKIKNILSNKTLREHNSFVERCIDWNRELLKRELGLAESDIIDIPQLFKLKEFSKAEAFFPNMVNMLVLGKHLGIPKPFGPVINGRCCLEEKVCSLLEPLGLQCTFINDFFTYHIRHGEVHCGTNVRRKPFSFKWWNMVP

PAD1 [3] = biological target: T3, PAD1 (Homo sapiens, UniProt Q9ULC6); test: Inactivation kinetics; type: biochemical; settings: read-out: kinact/KI (apparent), PAD1
T3 sequence (Q9ULC6 1-663): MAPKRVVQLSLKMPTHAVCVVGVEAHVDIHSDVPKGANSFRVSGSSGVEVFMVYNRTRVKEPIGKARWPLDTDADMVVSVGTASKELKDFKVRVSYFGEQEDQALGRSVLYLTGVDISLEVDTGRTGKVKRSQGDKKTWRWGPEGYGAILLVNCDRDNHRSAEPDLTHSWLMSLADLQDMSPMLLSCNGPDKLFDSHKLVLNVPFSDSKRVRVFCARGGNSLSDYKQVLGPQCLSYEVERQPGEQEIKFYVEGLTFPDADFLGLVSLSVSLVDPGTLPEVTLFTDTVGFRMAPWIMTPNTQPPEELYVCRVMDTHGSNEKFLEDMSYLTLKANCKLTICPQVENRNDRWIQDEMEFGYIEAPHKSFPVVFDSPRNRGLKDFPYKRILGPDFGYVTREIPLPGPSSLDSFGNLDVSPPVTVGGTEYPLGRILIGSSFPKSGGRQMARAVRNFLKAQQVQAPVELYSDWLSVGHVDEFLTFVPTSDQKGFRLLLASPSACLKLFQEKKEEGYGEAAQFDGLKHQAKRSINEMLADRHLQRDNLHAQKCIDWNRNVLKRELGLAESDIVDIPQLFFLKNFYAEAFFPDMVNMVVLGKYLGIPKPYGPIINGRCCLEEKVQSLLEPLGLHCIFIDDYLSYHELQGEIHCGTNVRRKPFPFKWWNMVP

PAD3 [4] = biological target: T4, PAD3 (Homo sapiens, UniProt Q9ULW8); test: Inactivation kinetics; type: biochemical; settings: read-out: kinact/KI (apparent), PAD3
T4 sequence (Q9ULW8 1-664): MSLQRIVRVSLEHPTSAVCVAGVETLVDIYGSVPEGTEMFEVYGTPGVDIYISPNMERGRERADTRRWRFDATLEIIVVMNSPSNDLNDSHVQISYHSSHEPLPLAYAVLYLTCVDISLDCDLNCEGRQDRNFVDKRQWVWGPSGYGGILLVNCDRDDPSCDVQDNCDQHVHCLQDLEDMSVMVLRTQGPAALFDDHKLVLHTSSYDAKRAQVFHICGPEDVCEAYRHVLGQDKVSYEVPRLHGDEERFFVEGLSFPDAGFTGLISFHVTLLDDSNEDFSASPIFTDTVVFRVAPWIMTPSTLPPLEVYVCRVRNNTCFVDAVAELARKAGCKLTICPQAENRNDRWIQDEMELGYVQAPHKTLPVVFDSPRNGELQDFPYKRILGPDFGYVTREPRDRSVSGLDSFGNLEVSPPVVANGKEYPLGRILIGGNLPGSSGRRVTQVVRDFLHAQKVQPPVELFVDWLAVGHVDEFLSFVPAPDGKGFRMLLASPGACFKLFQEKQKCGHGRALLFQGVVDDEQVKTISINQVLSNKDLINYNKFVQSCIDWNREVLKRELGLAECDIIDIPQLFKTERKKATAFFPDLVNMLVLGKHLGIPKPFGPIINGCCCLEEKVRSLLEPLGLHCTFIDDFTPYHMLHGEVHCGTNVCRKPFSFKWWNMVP

PAD4 [5] = biological target: T2, PAD4; test: Irreversibility study; type: biochemical; settings: for recovery of PAD4 enzymatic activity after dialysis: 100 μM compound, 1 h, dialysis overnight
PAD4 [6] = biological target: T2, PAD4; test: Inactivation kinetics; type: biochemical
PAD2 [7] = biological target: T1, PAD2; test: MALDI-MS analysis of inhibitor-treated enzyme; type: binding; settings: 1:10 enzyme:inhibitor, 1 h, PAD2 3 μM
PAD4 [8] = biological target: T2, PAD4; test: Gel-based competitive ABPP with RFA; type: binding; settings: RFA 10 μM, PAD4 2 μM, inhibitor 0–50 μM
PAD2 [9] = biological target: T1, PAD2; test: Inactivation kinetics; type: biochemical
PAD4 C645A = PAD4 C645A (Homo sapiens, UniProt Q9UM07, C645A); test: MALDI-MS analysis of inhibitor-treated enzyme; type: binding; settings: 1:10 enzyme:inhibitor, 1 h, PAD4 C645A 5 μM
PAD4 C645A, sequence (Q9UM07 whole entry C645A): as the sequence (Q9UM07 whole entry) above, with C645A counted along it

NIH 3T3 cells = test: XTT cell viability assay; settings: 10 μM, 3 days
U2OS cells = test: XTT cell viability assay; settings: 10 μM, 3 days
PAD1 [10] = biological target: T3, PAD1; test: Irreversibility study; type: biochemical; settings: 170-fold excess of 17, dialyzed 20 h
PAD3 [11] = biological target: T4, PAD3; test: Irreversibility study; type: biochemical; settings: 170-fold excess of 17, dialyzed 20 h
PAD2 [12] = biological target: T1, PAD2; test: Irreversibility study; type: biochemical; settings: 170-fold excess of 17, dialyzed 20 h
PAD4 [13] = biological target: T2, PAD4; settings: cited from earlier work
PADs = settings: second generation mechanism-based inactivator; cited from earlier work
[14] = read-out: kinact/KI (apparent), PAD4
[15] = read-out: kinact/KI (apparent), PAD2

WT-PAD4, sequence (Q9UM07 whole entry): as the sequence (Q9UM07 whole entry) above

NC1=CC(=O)c2ccc(-c3ccccn3)nc2C1=O [Compound 3]
mass shift of WT-PAD4 (Δ Da) (WT-PAD4): 692 Da
inhibition of the PADs (in words) (PADs 1, 2, 3, and 4): strong inhibition
labeling of PAD2 by RFA (PAD2 [1]): prevent labeling
substrate protection against inactivation of PAD4 (PAD4 [2]): little substrate protection was observed
kinact/KI (PAD1 [3]): 53.3 M⁻¹ s⁻¹
kinact/KI (PAD3 [4]): 30 M⁻¹ s⁻¹
recovery of PAD4 enzymatic activity after dialysis (PAD4 [5]): little to no activity is recovered
kinact/KI (PAD4 [6]; read-out: kinact/KI, PAD4): 95 M⁻¹ s⁻¹
mass shift of PAD2 (PAD2 [7]): 324 Da
labeling of PAD4 by RFA (PAD4 [8]): prevent labeling
kinact (PAD2 [9]; read-out: kinact, PAD2): 0.00117 s⁻¹
kinact/KI (PAD2 [9]; read-out: kinact/KI, PAD2): 138 M⁻¹ s⁻¹
mass shift of PAD4 C645A (Δ Da) (PAD4 C645A): 737 Da

COC(=O)c1nc(C(C)=O)c2[nH]c3ccccc3c2c1C [Compound 4]
inhibition of the PADs (in words) (PADs 1, 2, 3, and 4): little to no inhibition

COC(=O)c1cccc(-c2ccc3ccc(Br)c(O)c3n2)n1 [Compound 5]
inhibition of the PADs (in words) (PADs 1, 2, 3, and 4): no inhibition

COC(=O)c1nc(C(=O)OC)c(NC(C)=O)c(-c2ccccc2Br)c1C [Compound 6]
inhibition of the PADs (in words) (PADs 1, 2, 3, and 4): little to no inhibition

CCOC(=O)c1nc(C(=O)OCC)c(C(=O)OCC)c(-c2ccc(OC)c(OC)c2OCc2ccccc2)c1C [Compound 7]
inhibition of the PADs (in words) (PADs 1, 2, 3, and 4): little to no inhibition

COC(=O)c1nc(C(=O)OC)c(N)c(-c2ccccc2Br)c1C [Compound 8]
inhibition of the PADs (in words) (PADs 1, 2, 3, and 4): little to no inhibition

COC1=C(Br)C(=O)c2ncccc2C1=O [Compound 10]
inhibition of the PADs (in words) (PADs 1, 2, 3, and 4): strong inhibition
kinact/KI (PAD1 [3]): 60 M⁻¹ s⁻¹
kinact/KI (PAD3 [4]): 25 M⁻¹ s⁻¹
recovery of PAD4 enzymatic activity after dialysis (PAD4 [5]): little to no activity is recovered
cells remaining viable, NIH 3T3 (NIH 3T3 cells): retain significant viability
cells remaining viable, U2OS (U2OS cells): retain significant viability
kinact/KI (PAD4 [6]; [14]): 81.7 M⁻¹ s⁻¹
kinact/KI (PAD2 [9]; [15]): 63.3 M⁻¹ s⁻¹

NC1=CC(=O)c2cccnc2C1=O [Compound 14]
inhibition of the PADs (in words) (PADs 1, 2, 3, and 4): strong inhibition
kinact/KI (PAD1 [3]): 76.7 M⁻¹ s⁻¹
kinact/KI (PAD3 [4]): 51.7 M⁻¹ s⁻¹
recovery of PAD4 enzymatic activity after dialysis (PAD4 [5]): little to no activity is recovered
kinact/KI (PAD4 [6]; [14]): 93.3 M⁻¹ s⁻¹
kinact/KI (PAD2 [9]; [15]): 86.7 M⁻¹ s⁻¹

NC1=CC(=O)c2ccc(-c3cccc(C(=O)O)n3)nc2C1=O [Compound 17]
PAD1 activity regained after dialysis (PAD1 [10]): Little to no activity was regained
inhibition of the PADs (in words) (PADs 1, 2, 3, and 4): strong inhibition
PAD3 activity regained after dialysis (PAD3 [11]): Little to no activity was regained
labeling of PAD2 by RFA (PAD2 [1]): prevent labeling
recovery of PAD4 enzymatic activity after dialysis (PAD4 [5]): little to no activity is recovered
PAD4 activity regained after dialysis (PAD4 [5]; 170-fold excess of 17, dialyzed 20 h): Little to no activity was regained
cells remaining viable, NIH 3T3 (NIH 3T3 cells): retain significant viability
PAD2 activity regained after dialysis (PAD2 [12]): Little to no activity was regained
cells remaining viable, U2OS (U2OS cells): retain significant viability
labeling of PAD4 by RFA (PAD4 [8]): prevent labeling

NC1=C(N)C(=O)c2ccccc2C1=O [Compound 19]
inhibition of the PADs (PADs 1, 2, 3, and 4): ~ 50%

NC1=CC(=O)c2ccc(-c3cc(C(=O)O)ccc3N)nc2C1=O [Compound 22]
inhibition of the PADs (in words) (PADs 1, 2, 3, and 4): loss in potency

O=C(O)c1cccc(-c2ccc3ccc(Br)c(OCc4ccccc4)c3n2)n1 [Compound 23]
inhibition of the PADs (in words) (PADs 1, 2, 3, and 4): no inhibition

COC(=O)c1cc(-c2ccccc2)c(C(=O)OC)c(-c2ccc3ccccc3n2)n1 [Compound 24]
inhibition of the PADs (in words) (PADs 1, 2, 3, and 4): no inhibition

COC(=O)c1nnc(C(=O)OC)c(-c2ccc3c([N+](=O)[O-])c(OC)ccc3n2)n1 [Compound 25]
inhibition of the PADs (in words) (PADs 1, 2, 3, and 4): no inhibition

COC(=O)c1nnc(C(=O)OC)c(-c2ccc3cc(OC)ccc3n2)n1 [Compound 26]
inhibition of the PADs (in words) (PADs 1, 2, 3, and 4): no inhibition

COc1ccc2ncccc2c1[N+](=O)[O-] [Compound 29]
inhibition of the PADs (in words) (PADs 1, 2, 3, and 4): no inhibition

COc1ccc2nc(C#N)ccc2c1 [Compound 30]
inhibition of the PADs (in words) (PADs 1, 2, 3, and 4): no inhibition

COC1=C(N)C(=O)c2nc(-c3nc(C(=O)O)c(C)c(-c4ccc(OC)c(OC)c4O)c3N)ccc2C1=O [Streptonigrin, reference compound]
mass shift of WT-PAD4 (Δ Da) (WT-PAD4): 710 Da
labeling of PAD2 by RFA (PAD2 [1]): decreased the labeling
preferential inhibition of PAD4 versus PAD1 (PAD4 [13]): 119 fold
preferential inhibition of PAD4 versus PAD2 (PAD4 [13]): 37 fold
preferential inhibition of PAD4 versus PAD3 (PAD4 [13]): 126 fold
mass shift of PAD2 (PAD2 [7]): 469 Da
labeling of PAD4 by RFA (PAD4 [8]): decreased the labeling
mass shift of PAD4 C645A (Δ Da) (PAD4 C645A): 924 Da

CC(=O)N[C@H](C(=O)N[C@@H](CC(=O)O)C(=O)N[C@@H](CCCN=C(N)CF)C(N)=O)[C@@H](C)O [Thr-Asp-F-amidine (TDFA), Thr-Asp-F-amidine]
kinact/KI (PADs): 26,000 M^−1min^−1

— paper PMC3954981 (Bioorganic & medicinal chemistry, 2014)
